Data on nine compounds can be found in patent publication US10526347B2, “3-(3H-imidazo[4,5-B]pyridin-2-yl)-1H-pyrazolo[3,4-B]pyridine and therapeutic uses thereof” (Samumed, LLC, priority 2014, dated 2020).

What all share (assay type): cell-based
In assay [1] the test system is Wnt activity (SW480 colon carcinoma cells stably expressing the Sp5-Luc reporter gene). In words: Sp5-Luc reporter gene screening assay for Wnt activity. The settings on record: Homo sapiens. Put shortly:
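The SW480 cells carry a lentiviral luciferase reporter driven by a Sp5 promoter with eight TCF/LEF sites. They were plated at 10,000 cells/well in 10% FCS overnight, then pinned with 50 nl of 3-fold dilutions (10 mM top source concentration) into 50 μl.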

The subject of assay [2] is primary human mesenchymal stem cells (hMSCs). Put plainly: Chondrogenesis induction in primary human mesenchymal stem cells (chondrogenic nodules, Rhodamine B / Nile Red). As to conditions: 6 days; for EC (100% of TGF-beta3 activity): Homo sapiens, Mesenchymal stem cells, 144 h, concentration required to induce chondrogenesis equivalent to TGF-β3 10 ng/mL, read-out: Conc (nM) of 100% TGF-β3 activity; for Max. Activity as % TGF-β3 activity: positive control TGF-β3 10 ng/mL, nodule number normalized to DMSO. The method, then:
The above synthesized compounds were screened using primary human mesenchymal stem cells (hMSCs) to determine their ability to induce chondrogenesis (process by which cartilage is developed).
Primary human mesenchymal stem cells (hMSCs) were purchased from Lonza (Walkersville, Md.) and expanded in Mesenchymal Stem Cell Growth Media (Lonza). Cells between passage 3 and 6 were used for the experiments.
Each compound was dissolved in DMSO as a 10 mM stock and used to prepare compound source plates. Serial dilution (1:3, 6-point dose-response curves from 2700 nM to 10 nM) and compound transfer was performed using the ECHO 550 (Labcyte, Sunnyvale, Calif.) into 96-well clear bottom assay plates (Greiner Bio-One) with appropriate DMSO backfill for a final DMSO concentration of 0.03%. hMSCs were plated at 20,000 cells/well in 250 μL/well Incomplete Chondrogenic Induction Medium (Lonza; DMEM, dexamethasone, ascorbate, insulin-transferrin-selenium [ITS supplement], gentamycin-amphotericin [GA-1000], sodium pyruvate, proline and L-glutamine). TGF-β3 (10 ng/mL) was used as a positive control for differentiation while negative control wells were treated with 75 nL DMSO for normalization and calculating EC50 values. Cells were incubated at 37° C. and 5% CO2 for 6 days. To image chondrogenic nodules, the cells were fixed using 4% formaldehyde (Electron Microscopy Sciences), and stained with 2 μg/mL Rhodamine B (Sigma-Aldrich) and 20 μM Nile Red (Sigma-Aldrich) [Johnson K., et. al, A Stem Cell-Based Approach to Cartilage Repair, Science, (2012), 336(6082). 717-721]. The nodules imaged (4 images per well at 4× magnification) by excitation at 531 nm and emission at 625 nm and quantified using the CellInsight CX5 (Thermo Scientific). Number of nodules in each well was normalized to the average of 3 DMSO treated wells on the same plate using Excel (Microsoft Inc.). The normalized averages (fold change over DMSO) of 3 replicate wells for each compound concentration were calculated. Due to solubility limitations of some of the compounds, curve fitting was incomplete leading to inaccurate EC50 determinations.
Using TGF-β3 as a positive control, the concentration of test compounds required to induce equivalent levels of chondrogenesis is reported. In addition, the maximum activity of each compound and the respective dose that each compound reached maximum chondrogenesis activity is reported.

For assay [3], the system named is primary human fibroblasts derived from IPF patients (LL29 cells). Put plainly: Inhibition of the fibrotic process in TGF-β1 treated IPF patient fibroblasts (αSMA staining). The settings on record: Fibroblast, 96 h, LL29 cells treated with TGF-β1 (20 ng/mL), 4 days, read-out: Inhibition of fibrosis EC50. The method in brief:
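LL29 IPF lung fibroblasts in F12 with 1% FBS, compound (11-point, 10 μM to 1.87 nM, 0.1% DMSO) plus TGF-β1 20 ng/mL for 4 days at 37° C. αSMA-positive % of SYTOX-negative cells by immunofluorescence imaging, normalized to TGF-β1 wells; EC50 from non-linear regression of triplicates.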

Take `O=C(Nc1cncc(-c2cnc3[nH]nc(-c4nc5c(-c6ccc(F)cc6)ccnc5[nH]4)c3c2)c1)C1CCC1` [Compound 38, N-(5-(3-(7-(4-Fluorophenyl)-3H-imidazo[4,5-b]pyridin-2-yl)-1H-pyrazolo[3,4-b]pyridin-5-yl)pyridin-3-yl)cyclobutanecarboxamide]: the IC50 (commonly the point on the concentration scale where inhibition reaches its midpoint) in assay [1] was determined as 0.0115 µM. Besides, the EC (100% of TGF-beta3 activity) in assay [2] turned out to be 48.6 nM. Further, the EC50 – broadly, the concentration giving half of the maximal effect – in assay [3] is 0.118 µM.
The compound `Nc1cncc(-c2cnc3[nH]nc(-c4nc5c(-c6ccccc6F)ccnc5[nH]4)c3c2)c1` [Compound 45, 5-(3-(7-(2-Fluorophenyl)-3H-imidazo[4,5-b]pyridin-2-yl)-1H-pyrazolo [3,4-b]pyridin-5-yl)pyridin-3-amine] yielded an IC50 in assay [1] of 0.0037 µM. In assay [2], the “Max. Activity as % TGF-β3 activity” value amounted to 300% and the EC (100% of TGF-beta3 activity) was found to be 59.9 nM. In addition, in assay [3], the EC50 is ≤ 0.009 µM.
For `CCC(=O)Nc1cncc(-c2cnc3[nH]nc(-c4nc5c(N6CCCCC6)ccnc5[nH]4)c3c2)c1` [Compound 133, N-(5-(3-(7-(Piperidin-1-yl)-3H-imidazo[4,5-b]pyridin-2-yl)-1H-pyrazolo[3,4-b]pyridin-5-yl)pyridin-3-yl)propionamide], the IC50 in assay [1] amounted to 0.0366 µM. In addition, in assay [2], the “Max. Activity as % TGF-β3 activity” value came to 300% and the EC (100% of TGF-beta3 activity) was determined as 317 nM. Also, the EC50 in assay [3] is 0.853 µM.
In turn, `CCCC(=O)Nc1cncc(-c2cnc3[nH]nc(-c4nc5c(-c6ccsc6)ccnc5[nH]4)c3c2)c1` [Compound 249, N-(5-(3-(7-(Thiophen-3-yl)-3H-imidazo[4,5-b]pyridin-2-yl)-1H-pyrazolo[3,4-b]pyridin-5-yl)pyridin-3-yl)butyramide] registered an IC50 in assay [1] of 0.0027 µM. The EC (100% of TGF-beta3 activity) in assay [2] amounted to 31.9 nM. The EC50 in assay [3] was 0.035 µM.
In turn, `CCC(=O)Nc1cncc(-c2cnc3[nH]nc(-c4nc5c(-c6cccs6)ccnc5[nH]4)c3c2)c1` [Compound 285, N-(5-(3-(7-(Thiophen-2-yl)-3H-imidazo[4,5-b]pyridin-2-yl)-1H-pyrazolo[3,4-b]pyridin-5-yl)pyridin-3-yl)propionamide] gave an IC50 in assay [1] of 0.0033 µM. Moreover, the EC (100% of TGF-beta3 activity) in assay [2] came out at 48.9 nM. Further, the EC50 in assay [3] was ≤ 0.009 µM.
`Cc1ccc(-c2ccnc3[nH]c(-c4n[nH]c5ncc(-c6cncc(N)c6)cc45)nc23)s1` [Compound 339, 5-(3-(7-(5-Methylthiophen-2-yl)-3H-imidazo[4,5-b]pyridin-2-yl)-1H-pyrazolo[3,4-b]pyridin-5-yl)pyridin-3-amine] registered an IC50 in assay [1] of 0.0026 µM. The EC (100% of TGF-beta3 activity) in assay [2] came out at 43.2 nM. In addition, the EC50 in assay [3] amounted to 0.04 µM.
Compound `Cc1ccncc1-c1cnc2[nH]nc(-c3nc4c(-c5cc(F)cc(CNS(C)(=O)=O)c5)ccnc4[nH]3)c2c1` [Compound 393, N-(3-Fluoro-5-(2-(5-(4-methylpyridin-3-yl)-1H-pyrazolo[3,4-b]pyridin-3-yl)-3H-imidazo[4,5-b]pyridin-7-yl)benzyl)methanesulfonamide] gave an IC50 in assay [1] of 0.0206 µM. In addition, in assay [2], the “Max. Activity as % TGF-β3 activity” value was 100% and the EC (100% of TGF-beta3 activity) worked out at 140 nM. For the same compound, in assay [3], the EC50 worked out at 0.674 µM.
In assay [1], `Fc1cccc(-c2ccnc3[nH]c(-c4n[nH]c5ncc(-c6cn[nH]c6)cc45)nc23)c1` [Compound 911, 3-(7-(3-Fluorophenyl)-3H-imidazo[4,5-b]pyridin-2-yl)-5-(1H-pyrazol-4-yl)-1H-pyrazolo[3,4-b]pyridine] showed an IC50 of 0.03 µM. Further, in assay [2], the “Max. Activity as % TGF-β3 activity” value is recorded as 100% and the EC (100% of TGF-beta3 activity) was 110 nM. The EC50 in assay [3] was 0.029 µM.
Regarding `Cc1ncc(-c2cnc3[nH]nc(-c4nc5c(-c6cccc(F)c6)ccnc5[nH]4)c3c2)n1C` [Compound 913, 5-(1,2-Dimethyl-1H-imidazol-5-yl)-3-(7-(3-fluorophenyl)-3H-imidazo[4,5-b]pyridin-2-yl)-1H-pyrazolo[3,4-b]pyridine], half-maximal inhibition in assay [1] (IC50) was put at 0.066 µM. Moreover, in assay [2], the “Max. Activity as % TGF-β3 activity” value turned out to be 300% and the EC (100% of TGF-beta3 activity) was determined as 117 nM. Further, in assay [3], the EC50 was determined as 0.216 µM.
